This passage reports Kd results from paper PMC8618034, “In Silico Structure-Guided Optimization and Molecular Simulation Studies of 3-Phenoxy-4-(3-trifluoromethylphenyl)pyridazines as Potent Phytoene Desaturase Inhibitors” (Molecules, 2021).

Each structure is given as a SMILES string. pKd: −log10 of the molar value. Like-named read-outs stand apart in the source and are kept apart here.

The target in this assay is T1, Synechococcus PDS (phytoene desaturase) (Synechococcus elongatus, UniProt P26294).
T1 construct: recombinant, pET15b-Synechococcus PDS
T1 sequence (P26294 whole entry): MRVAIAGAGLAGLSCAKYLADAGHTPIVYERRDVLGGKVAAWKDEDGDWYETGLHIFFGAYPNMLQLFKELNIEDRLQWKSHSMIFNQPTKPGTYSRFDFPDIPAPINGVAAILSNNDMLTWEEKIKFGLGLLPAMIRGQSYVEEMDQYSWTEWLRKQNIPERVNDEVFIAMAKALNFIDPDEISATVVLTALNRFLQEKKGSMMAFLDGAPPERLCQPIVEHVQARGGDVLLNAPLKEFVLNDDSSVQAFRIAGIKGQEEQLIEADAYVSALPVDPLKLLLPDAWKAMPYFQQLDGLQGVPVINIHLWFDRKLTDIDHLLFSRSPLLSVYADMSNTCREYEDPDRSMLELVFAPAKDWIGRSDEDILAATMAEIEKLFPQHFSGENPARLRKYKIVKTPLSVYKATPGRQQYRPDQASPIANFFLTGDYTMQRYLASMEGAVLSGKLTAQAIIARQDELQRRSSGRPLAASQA
The assay can be described thus: SPR (Biacore 8K, protein immobilized on CM5 chip). Type of assay: binding. (SPR reads the build-up and loss of mass on a sensor chip optically.)

As for `Cc1cc(-c2cccc(C(F)(F)F)c2)c(Oc2ccc(C#N)cc2)nn1` [compound 1], the pKd (usually the Kd on a negative log10 scale, so that one unit is a factor of ten) (read-out: Kd) is 4.36.
On to `Cc1cc(-c2cccc(C(F)(F)F)c2)c(Oc2ccc(C(F)(F)F)cc2)nn1` [2a, 6-methyl-3-(4-(trifluoromethyl)phenoxy)-4-(3(trifluoromethyl)phenyl)pyridazine], for which, under “read-out: Kd”, the pKd was 5.15.
Consider `O=C(Nc1ccc(F)cc1F)c1cccnc1Oc1cccc(C(F)(F)F)c1` [diflufenican], for which the pKd was 4.15.
As to `CCc1cc(-c2cccc(C(F)(F)F)c2)c(Oc2cc(F)c(F)c(F)c2)nn1` [3h, 6-ethyl-4-(3-(trifluoromethyl)phenyl)-3-(3,4,5-trifluorophenoxy)pyridazine], the pKd (read-out: Kd) was 4.20.
